Reference: US20230066011A1, “PYRROLOPYRIMIDINE DERIVATIVE, AND PHARMACEUTICAL COMPOSITION FOR PREVENTING OR TREATING PROTEIN KINASE-RELATED DISEASE COMPRISING SAME AS ACTIVE INGREDIENT” (VORONOI CO., LTD., priority 2019, published 2023)

Legend:
human GST-CLK1 = molecular target: T1, human GST-CLK1 (Homo sapiens, UniProt P49759); assay: GST-CLK1 enzyme inhibition, ADP-Glo kinase assay; format: biochemical; conditions: ATP 10 μM, GST-CLK1 129-end
T1 construct: purified human GST-CLK1 (129-end, SignalChem) enzyme; purchased SignalChem
How it was run: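 Human GST-CLK1 (129-end, 3 ng) reacted with substrate and 10 μM ATP for 1 h at 25° C in 40 mM Tris-HCl pH 7.4, 20 mM MgCl2, 0.5 mg/mL BSA, 50 μM DTT. ADP-Glo luminescence was normalised to solvent control; IC50 (nM) from 3 data sets.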

MDA-MB-231 cell line = assay: Inhibition of proliferation of MDA-MB-231 cancer cells (Cell Titer-Glo); format: cell-based; conditions: Homo sapiens, 72 hours
How it was run: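 Cells were grown in DMEM or RPMI, seeded at 2,000 cells/well and exposed to 11 threefold dilutions of compound (final 10 to 0.000169 μM) for 72 hours. Viability was read by Cell Titer-Glo luminescence after 10 min at room temperature, and GI50 was calculated from the luminescence data.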

TNF-α = assay: Inhibition of LPS-induced TNF-α secretion of THP-1 monocytes (ELISA); format: cell-based, human; conditions: Homo sapiens, THP-1; compound 0.5 μM, LPS 500 ng/mL, 24 hours; read-out: THP-1/TNF-α (% inhib)
How it was run: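 THP-1 monocytes grown 16 h at 37 °C, pretreated 1 h with compound at final 0.5 μM, then stimulated with LPS at final 500 ng/mL for 24 h. IL-6 and TNF-α in culture supernatant measured by ELISA (OD 450 nm).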

LRRK2 (G2019S) = LRRK2 (G2019S) (Homo sapiens, UniProt Q5S007, G2019S); assay: LRRK2 G2019S enzyme inhibition, ADP-Glo kinase assay; format: biochemical; set-up: purchased SignalChem L10-12GG; conditions: ATP 25 μM
How it was run: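 Purified human LRRK2 G2019S (16 ng) with 25 μM ATP and 0.2 μg substrate, 2 h at 25° C. in Tris-HCl pH 7.4, MgCl2, BSA, DTT buffer; compounds at 12 final concentrations, 50 μM down to 0.000001024 μM. ADP-Glo luminescence versus solvent control gave IC50.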

LRRK2 (G2019S), sequence (Q5S007 970-2527 G2019S limits assumed): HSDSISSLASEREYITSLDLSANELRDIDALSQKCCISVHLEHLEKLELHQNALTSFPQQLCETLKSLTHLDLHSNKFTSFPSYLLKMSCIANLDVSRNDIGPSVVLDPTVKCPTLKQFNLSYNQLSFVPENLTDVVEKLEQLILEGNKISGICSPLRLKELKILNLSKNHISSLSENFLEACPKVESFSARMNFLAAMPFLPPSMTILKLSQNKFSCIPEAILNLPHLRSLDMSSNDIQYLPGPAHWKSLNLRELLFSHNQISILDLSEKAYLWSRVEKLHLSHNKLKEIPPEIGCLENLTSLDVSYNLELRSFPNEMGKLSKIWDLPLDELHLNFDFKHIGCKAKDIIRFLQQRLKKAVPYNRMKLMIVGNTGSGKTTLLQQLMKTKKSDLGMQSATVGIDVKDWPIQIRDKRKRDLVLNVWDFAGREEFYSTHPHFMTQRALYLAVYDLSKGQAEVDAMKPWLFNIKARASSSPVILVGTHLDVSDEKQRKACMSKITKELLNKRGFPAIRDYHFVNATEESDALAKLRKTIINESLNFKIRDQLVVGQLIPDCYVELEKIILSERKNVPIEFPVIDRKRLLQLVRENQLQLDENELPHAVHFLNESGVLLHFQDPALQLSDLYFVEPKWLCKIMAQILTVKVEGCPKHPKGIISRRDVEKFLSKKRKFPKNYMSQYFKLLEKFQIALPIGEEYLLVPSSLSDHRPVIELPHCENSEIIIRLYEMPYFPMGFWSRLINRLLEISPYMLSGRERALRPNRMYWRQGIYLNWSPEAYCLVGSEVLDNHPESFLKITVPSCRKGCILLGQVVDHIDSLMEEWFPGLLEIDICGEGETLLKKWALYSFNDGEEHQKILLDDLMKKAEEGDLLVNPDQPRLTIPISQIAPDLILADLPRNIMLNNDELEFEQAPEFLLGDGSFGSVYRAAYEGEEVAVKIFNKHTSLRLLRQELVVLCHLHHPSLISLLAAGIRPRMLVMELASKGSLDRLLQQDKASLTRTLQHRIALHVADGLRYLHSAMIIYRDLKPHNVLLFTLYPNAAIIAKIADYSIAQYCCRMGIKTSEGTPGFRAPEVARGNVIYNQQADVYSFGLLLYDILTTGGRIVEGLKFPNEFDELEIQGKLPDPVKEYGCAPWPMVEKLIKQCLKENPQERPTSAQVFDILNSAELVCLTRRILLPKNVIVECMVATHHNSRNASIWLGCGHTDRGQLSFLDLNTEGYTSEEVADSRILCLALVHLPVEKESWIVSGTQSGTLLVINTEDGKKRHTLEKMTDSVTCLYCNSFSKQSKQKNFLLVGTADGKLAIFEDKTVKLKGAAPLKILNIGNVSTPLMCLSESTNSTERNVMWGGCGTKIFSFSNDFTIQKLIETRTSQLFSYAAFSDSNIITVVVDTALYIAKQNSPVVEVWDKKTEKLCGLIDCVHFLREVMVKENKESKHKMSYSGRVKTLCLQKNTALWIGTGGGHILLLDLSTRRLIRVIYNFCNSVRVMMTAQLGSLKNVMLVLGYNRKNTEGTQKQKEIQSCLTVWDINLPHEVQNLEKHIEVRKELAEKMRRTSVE
T1 sequence (P49759 129-484 limits assumed): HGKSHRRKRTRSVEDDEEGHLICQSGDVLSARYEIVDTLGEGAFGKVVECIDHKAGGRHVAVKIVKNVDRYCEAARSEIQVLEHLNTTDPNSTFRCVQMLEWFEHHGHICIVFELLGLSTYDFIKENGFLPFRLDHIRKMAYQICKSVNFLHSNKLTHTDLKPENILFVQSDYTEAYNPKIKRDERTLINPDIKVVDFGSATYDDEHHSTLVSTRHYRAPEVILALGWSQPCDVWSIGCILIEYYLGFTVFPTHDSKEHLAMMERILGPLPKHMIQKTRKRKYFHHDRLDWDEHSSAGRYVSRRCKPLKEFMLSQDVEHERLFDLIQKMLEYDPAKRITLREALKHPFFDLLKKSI

IC50 (human GST-CLK1)	GI50 (MDA-MB-231 cell line)	IC50 (LRRK2 (G2019S))	Compound	inhibition at 0.5 µM (TNF-α)
101 to 300 nM	301 to 1000 nM	< 100 nM	CCNc1nc(Nc2ccc(S(=O)(=O)N3CCC(N4CCOCC4)CC3)c3c2OCCO3)nc2[nH]cc(C(F)(F)F)c12 [Example 430, N^4-ethyl-N^2-(8-((4-morpholino-piperidin-1-yl)sulfonyl)-2,3-dihydro-benzo[b][1,4]dioxin-5-yl)-5-(trifluoromethyl)-7H-pyrrolo[2,3-d]pyrimidine-2,4-diamine]	4.5%
< 100 nM		< 100 nM	O=C(c1ccc(Nc2nc(NC3CC3)c3c(C(F)(F)F)c[nH]c3n2)c2c1CCO2)N1CCC(N2CCOCC2)CC1 [Example 434, (7-((4-(cyclopropyl-amino)5-(trifluoromethyl)-7H-pyrrolo[2,3-d]pyrimidin-2-yl)amino)-2,3-dihydrobenzo-furan-4-yl)(4-morpho-linopiperidin-1-yl)methanone]	16%
< 100 nM		< 100 nM	CCNc1nc(Nc2ccc(C(=O)N3CCC(N4CCOCC4)CC3)c3c2OCC3)nc2[nH]cc(C(F)(F)F)c12 [Example 438, (7-((4-(ethylamino)-5-(trifluoromethyl)-7H-pyrrolo[2,3-d]pyrimidin-2-yl)amino)-2,3-dihydrobenzo-furan-4-yl)(4-morpho-linopiperidin-1-yl)methanone]	10.8%
< 100 nM		< 100 nM	COCCNc1nc(Nc2ccc(C(=O)N3CCC(N4CCOCC4)CC3)c3c2OCC3)nc2[nH]cc(C(F)(F)F)c12 [Example 443, (7-((4-((2-methoxyethyl)amino)-5-(trifluoromethyl)-7H-pyrrolo[2,3-d]pyrimidin-2-yl)amino)-2,3-dihydrobenzo-furan-4-yl)(4-morpho-linopiperidin-1-yl)methanone]	10.8%
< 100 nM		< 100 nM	CCCNc1nc(Nc2ccc(C(=O)N3CCC(N4CCOCC4)CC3)c3c2OCC3)nc2[nH]cc(C(F)(F)F)c12 [Example 446, (4-morpholino-piperidin-1-yl)(7-((4-(propylamino)-5-(trifluoromethyl)-7H-pyrrolo[2,3-d]pyrimidin-2-yl)amino)-2,3-dihydrobenzo-furan-4-yl)methanone]	22.5%
< 100 nM		< 100 nM	O=C(c1ccc(Nc2nc(NCC3CC3)c3c(C(F)(F)F)c[nH]c3n2)c2c1CCO2)N1CCC(N2CCOCC2)CC1 [Example 461, (7-((4-((cyclo-propylmeth-yl)amino)-5-(trifluoromethyl)-7H-pyrrolo[2,3-d]pyrimidin-2-yl)amino)-2,3-dihydrobenzo-furan-4-yl)(4-morpho-linopiperidin-1-yl)methanone]	2.3%
< 100 nM		< 100 nM	CCNc1nc(Nc2ccc(C(=O)N3CCC(N4C[C@@H]5C[C@H]4CO5)CC3)c3c2OCC3)nc2[nH]cc(C(F)(F)F)c12 [Example 468]	16.5%
	101 to 300 nM		COc1cc(S(=O)(=O)N2CCC(N3C[C@H]4C[C@@H]3CO4)CC2)ccc1Nc1nc(C2CC2)c2c(C(F)(F)F)c[nH]c2n1 [Example 473, N-(4-((4-((1R,4R)-2-oxa-5-azabicyclo[2.2.1]heptan-5-yl)piperidin-1-yl)sulfonyl)-2-methoxyphenyl)-4-cyclopropyl-5-(trifluoromethyl)-7H-pyrrolo[2,3-d]pyrimidin-2-amine]	11.3%
< 100 nM		< 100 nM	CCNc1nc(Nc2ccc(C(=O)N3CC[C@H](N4CCOCC4)C3)c3c2OCC3)nc2[nH]cc(C(F)(F)F)c12 [Example 475, (S)-(7-((4-(ethylamino)-5-(trifluoromethyl)-7H-pyrrolo[2,3-d]pyrimidin-2-yl)amino)-2,3-dihydrobenzo-furan-4-yl)(3-morpholino-pyrrolidin-1-yl)methanone]	4.7%

More lines, now with the values behind:

Compound	IC50 (human GST-CLK1)	GI50 (MDA-MB-231 cell line)	IC50 (LRRK2 (G2019S))	inhibition at 0.5 µM (TNF-α)
CNc1nc(Nc2ccc(S(=O)(=O)N3CCC(N4CCOCC4)CC3)cc2OC)nc2[nH]cc(C(F)(F)F)c12 [Example 157, N^2-(2-methoxy-4-((4-morpholinopiperidin-1-yl)sulfonyl)phenyl)-N^4-methyl-5-(trifluoromethyl)-7H-pyrrolo[2,3-d]pyrimidine-2,4-diamine 2,2,2-trifluoroacetate]	< 100 nM	301 to 1000 nM	< 100 nM	6.7%
CNc1nc(Nc2ccc(S(=O)(=O)N3CCC(N4CCOCC4)CC3)c3c2OCCO3)nc2[nH]cc(C(F)(F)F)c12 [Example 219, N^4-methyl-N^2-(8-((4-morpholinopiperidin-1-yl)sulfonyl)-2,3-dihydrobenzo[b][1,4]dioxin-5-yl)-5-(trifluoromethyl)-7H-pyrrolo[2,3-d]pyrimidine-2,4-diamine]	< 100 nM	301 to 1000 nM	< 100 nM	6.6%
CNc1nc(Nc2ccc(C(=O)N3CC[C@H](N4CCOCC4)C3)c3c2OCC3)nc2[nH]cc(C(F)(F)F)c12 [Example 236, (S)-(7-((4-(methylamino)-5-(trifluoromethyl)-7H-pyrrolo[2,3-d]pyrimidin-2-yl)amino)-2,3-dihydrobenzofuran-4-yl)(3-morpholinopyrrolidin-1-yl)methanone]	< 100 nM		< 100 nM	13.6%
CCNc1nc(Nc2ccc(C(=O)N3CCC(N4CCOCC4)CC3)c3c2OCC3)nc2[nH]cc(C#N)c12 [Example 347, 4-(ethylamino)-2-((4-(4-morpholino-piperidine-1-carbonyl)-2,3-dihydro-benzofuran-7-yl)amino)-7H-pyrrolo[2,3-d]pyrimidine-5-carbonitrile]	< 100 nM		< 100 nM	13.3%
COCCNc1nc(Nc2ccc(C(=O)N3CCC(N4CCOCC4)CC3)c3c2OCC3)nc2[nH]cc(C#N)c12 [Example 359, 4-((2-methoxy-ethyl)ami-no)-2-((4-(4-morpholino-piperidine-1-carbonyl)-2,3-dihydro-benzofuran-7-yl)amino)-7H-pyrrolo[2,3-d]pyrimidine-5-carbonitrile]	< 100 nM	301 to 1000 nM		33.2%
C=CCNc1nc(Nc2ccc(S(=O)(=O)N3CCC(N4CCOCC4)CC3)cc2OC)nc2[nH]cc(C#N)c12 [Example 361, 4-(allylamino)-2-((2-methoxy-4-((4-morpholino-piperidin-1-yl)sulfonyl)phenyl)amino)-7H-pyrrolo[2,3-d]pyrimidine-5-carbonitrile]	< 100 nM		< 100 nM	9.3%
CNc1nc(Nc2ccc(C(=O)N3CCN(C4COC4)CC3)c3c2OCCO3)nc2[nH]cc(C(F)(F)F)c12 [Example 397, (8-((4-(methylamino)-5-(trifluoromethyl)-7H-pyrrolo[2,3-d]pyrimidin-2-yl)amino)-2,3-dihydrobenzo[b] [1,4]dioxin-5-yl) (4-(oxetan-3-yl)piperazin-1-yl)methanone]	< 100 nM		< 100 nM	5.6%
CCNc1nc(Nc2ccc(C(=O)N3CCN(C4COC4)CC3)c3c2OCCO3)nc2[nH]cc(C(F)(F)F)c12 [Example 400, (8-((4-(ethylamino)-5-(trifluoromethyl)-7H-pyrrolo[2,3-d]pyrimidin-2-yl)amino)-2,3-dihydrobenzo[b] [1,4]dioxin-5-yl) (4-(oxetan-3-yl)piperazin-1-yl)methanone]	< 100 nM		< 100 nM	1%
O=C(c1ccc(Nc2nc(NC3CCCC3)c3c(C(F)(F)F)c[nH]c3n2)c2c1OCCO2)N1CCN(C2COC2)CC1 [Example 414, (8-((4-(cyclopentyl-amino)-5-(trifluoromethyl)-7H-pyrrolo[2,3-d]pyrimidin-2-yl)amino)-2,3-dihydrobenzo[b] [1,4]dioxin-5-yl) (4-(oxetan-3-yl)piperazin-1-yl)methanone]	< 100 nM	101 to 300 nM	< 100 nM	40.3%
